ChEMBL document CHEMBL3885881, “DrugMatrix”

Organism: Rattus norvegicus
Assay: DrugMatrix - Regimen: Daily Repeat
Assay type: toxicity, organism-based, Sprague-Dawley
Design: regimen Daily Repeat, gender Male, age 6-8 weeks
Conditions: in vivo, po, route oral GAVAGE, vehicle .5 % CMC; for ABSOLUTE BASOPHIL / ABSOLUTE EOSINOPHIL / ABSOLUTE LYMPHOCYTE / ABSOLUTE MONOCYTE / ABSOLUTE SEGMENTED NEUTROPHIL / BASOPHIL / EOSINOPHIL / ERYTHROCYTE COUNT / HEMATOCRIT / HEMOGLOBIN / LEUKOCYTE COUNT / LYMPHOCYTE / MEAN CORPUSCULAR HEMOGLOBIN / MEAN CORPUSCULAR HEMOGLOBIN CONCENTRATION / MEAN CORPUSCULAR VOLUME / MONOCYTE / NEUTROPHIL / NUCLEATED RED BLOOD CELLS / PLATELET COUNT: tissue Blood; for ALANINE AMINOTRANSFERASE / ALBUMIN / ALKALINE PHOSPHATASE / ASPARTATE AMINOTRANSFERASE / BLOOD UREA NITROGEN / CARBON DIOXIDE / CHLORIDE / CHOLESTEROL / CREATINE PHOSPHOKINASE / CREATININE / GLUCOSE / LACTATE DEHYDROGENASE / LIPASE / PHOSPHORUS / POTASSIUM / SODIUM / TOTAL BILIRUBIN / TOTAL PROTEIN / URIC ACID: tissue Plasma
[1] = 10 mg/kg, 120 h, dose level Low, time 5 day
[2] = 63 mg/kg, 72 h, dose level High, time 3 day
[3] = 63 mg/kg, 120 h, dose level High, time 5 day

SMILES: COc1c(C)c2c(c(O)c1C/C=C(\C)CCC(=O)OCCN1CCOCC1)C(=O)OC2 [MYCOPHENOLATE MOFETIL]
- ABSOLUTE BASOPHIL [1]: 0 CELLS/uL
- ABSOLUTE EOSINOPHIL [1]: 90 CELLS/uL
- ABSOLUTE LYMPHOCYTE [1]: 13218.67 CELLS/uL
- ABSOLUTE MONOCYTE [1]: 116.67 CELLS/uL
- ABSOLUTE SEGMENTED NEUTROPHIL [1]: 1408 CELLS/uL
- BASOPHIL [1]: 0%
- EOSINOPHIL [1]: 0.67%
- ERYTHROCYTE COUNT [1]: 5.48 x10E6/uL
- HEMATOCRIT [1]: 34.27%
- HEMOGLOBIN [1]: 13.7 G/DL
- LEUKOCYTE COUNT [1]: 14.83 x10E3/uL
- LYMPHOCYTE [1]: 89.33%
- MEAN CORPUSCULAR HEMOGLOBIN [1]: 25 pg
- MEAN CORPUSCULAR HEMOGLOBIN CONCENTRATION [1]: 40.03 G/DL
- MEAN CORPUSCULAR VOLUME [1]: 62.53 fL
- MONOCYTE [1]: 0.67%
- NEUTROPHIL [1]: 9.33%
- NUCLEATED RED BLOOD CELLS [1]: 0 /100WBC
- PLATELET COUNT [1]: 1214 x10E3/uL
- ALANINE AMINOTRANSFERASE [1]: 55.67 u/L
- ALBUMIN [1]: 4.17 G/DL
- ALKALINE PHOSPHATASE [1]: 364.33 u/L
- ASPARTATE AMINOTRANSFERASE [1]: 99.67 u/L
- BLOOD UREA NITROGEN [1]: 13.67 mg/dL
- CARBON DIOXIDE [1]: 31.33 mmol/L
- CHLORIDE [1]: 102.67 MEQ/L
- CHOLESTEROL [1]: 61.67 mg/dL
- CREATINE PHOSPHOKINASE [1]: 341.67 u/L
- CREATININE [1]: 0.2 mg/dL
- GLUCOSE [1]: 141 mg/dL
- LACTATE DEHYDROGENASE [1]: 409.33 u/L
- LIPASE [1]: 9.67 u/L
- PHOSPHORUS [1]: 11.87 mg/dL
- POTASSIUM [1]: 6.19 MEQ/L
- SODIUM [1]: 144.83 MEQ/L
- TOTAL BILIRUBIN [1]: 0.1 mg/dL
- TOTAL PROTEIN [1]: 5.8 G/DL
- URIC ACID [1]: 1.37 mg/dL
- ABSOLUTE BASOPHIL [2]: 0 CELLS/uL
- ABSOLUTE EOSINOPHIL [2]: 0 CELLS/uL
- ABSOLUTE LYMPHOCYTE [2]: 8638 CELLS/uL
- ABSOLUTE MONOCYTE [2]: 62 CELLS/uL
- ABSOLUTE SEGMENTED NEUTROPHIL [2]: 300 CELLS/uL
- BASOPHIL [2]: 0%
- EOSINOPHIL [2]: 0%
- ERYTHROCYTE COUNT [2]: 4.81 x10E6/uL
- HEMATOCRIT [2]: 32.3%
- HEMOGLOBIN [2]: 12.6 G/DL
- LEUKOCYTE COUNT [2]: 9 x10E3/uL
- LYMPHOCYTE [2]: 96%
- MEAN CORPUSCULAR HEMOGLOBIN [2]: 26.2 pg
- MEAN CORPUSCULAR HEMOGLOBIN CONCENTRATION [2]: 39 G/DL
- MEAN CORPUSCULAR VOLUME [2]: 67.17 fL
- MONOCYTE [2]: 0.67%
- NEUTROPHIL [2]: 3.33%
- NUCLEATED RED BLOOD CELLS [2]: 0.33 /100WBC
- PLATELET COUNT [2]: 1141.33 x10E3/uL
- ALANINE AMINOTRANSFERASE [2]: 32.67 u/L
- ALBUMIN [2]: 4.13 G/DL
- ALKALINE PHOSPHATASE [2]: 373.33 u/L
- ASPARTATE AMINOTRANSFERASE [2]: 70.33 u/L
- BLOOD UREA NITROGEN [2]: 14.33 mg/dL
- CARBON DIOXIDE [2]: 28.67 mmol/L
- CHLORIDE [2]: 102.33 MEQ/L
- CHOLESTEROL [2]: 78.67 mg/dL
- CREATINE PHOSPHOKINASE [2]: 199.67 u/L
- CREATININE [2]: 0.16 mg/dL
- GLUCOSE [2]: 161.67 mg/dL
- LACTATE DEHYDROGENASE [2]: 310.33 u/L
- LIPASE [2]: 9.67 u/L
- PHOSPHORUS [2]: 11.63 mg/dL
- POTASSIUM [2]: 6.25 MEQ/L
- SODIUM [2]: 143.47 MEQ/L
- TOTAL BILIRUBIN [2]: 0.13 mg/dL
- TOTAL PROTEIN [2]: 5.6 G/DL
- URIC ACID [2]: 1.1 mg/dL
- ABSOLUTE BASOPHIL [3]: 0 CELLS/uL
- ABSOLUTE EOSINOPHIL [3]: 45.67 CELLS/uL
- ABSOLUTE LYMPHOCYTE [3]: 11569 CELLS/uL
- ABSOLUTE MONOCYTE [3]: 81.67 CELLS/uL
- ABSOLUTE SEGMENTED NEUTROPHIL [3]: 1037 CELLS/uL
- BASOPHIL [3]: 0%
- EOSINOPHIL [3]: 0.33%
- ERYTHROCYTE COUNT [3]: 4.9 x10E6/uL
- HEMATOCRIT [3]: 29.73%
- HEMOGLOBIN [3]: 12.17 G/DL
- LEUKOCYTE COUNT [3]: 12.73 x10E3/uL
- LYMPHOCYTE [3]: 91%
- MEAN CORPUSCULAR HEMOGLOBIN [3]: 24.83 pg
- MEAN CORPUSCULAR HEMOGLOBIN CONCENTRATION [3]: 40.93 G/DL
- MEAN CORPUSCULAR VOLUME [3]: 60.7 fL
- MONOCYTE [3]: 0.67%
- NEUTROPHIL [3]: 8%
- NUCLEATED RED BLOOD CELLS [3]: 0 /100WBC
- PLATELET COUNT [3]: 1576 x10E3/uL
- ALANINE AMINOTRANSFERASE [3]: 40.33 u/L
- ALBUMIN [3]: 4.33 G/DL
- ALKALINE PHOSPHATASE [3]: 290 u/L
- ASPARTATE AMINOTRANSFERASE [3]: 92.67 u/L
- BLOOD UREA NITROGEN [3]: 17.33 mg/dL
- CARBON DIOXIDE [3]: 27.33 mmol/L
- CHLORIDE [3]: 101 MEQ/L
- CHOLESTEROL [3]: 76.67 mg/dL
- CREATINE PHOSPHOKINASE [3]: 208.67 u/L
- CREATININE [3]: 0.15 mg/dL
- GLUCOSE [3]: 189.33 mg/dL
- LACTATE DEHYDROGENASE [3]: 215.33 u/L
- LIPASE [3]: 7 u/L
- PHOSPHORUS [3]: 12.23 mg/dL
- POTASSIUM [3]: 5.8 MEQ/L
- SODIUM [3]: 145 MEQ/L
- TOTAL BILIRUBIN [3]: 0.2 mg/dL
- TOTAL PROTEIN [3]: 6.07 G/DL
- URIC ACID [3]: 1.83 mg/dL
